The molecules below were run on Plasmodium falciparum (assay: GSK_TCMDC: Inhibition of Plasmodium falciparum 3D7 in whole erythrocytes, using parasite LDH activity as an index of growth.). Conditions: Plasmodium falciparum, 3D7.
Format: functional, organism-based

Row | SMILES | XC50
1 | NC1=NC2(CCCC2)N(c2ccc(Cl)cc2)C(N)=N1 | 414 nM
2 | c1ccc(CN2CCC(NCc3ccc(-c4ccc(CNC5CCCC5)cc4)cc3)CC2)cc1 | 294 nM
3 | CN(C)CCNCc1ncsc1-c1ccc2c(Nc3ccc(F)cc3Cl)ccnc2c1 | 1470 nM
4 | OC(CNCc1ccco1)Cn1c2ccc(Br)cc2c2cc(Br)ccc21 (centres undefined) | 1070 nM
5 | COC(=O)c1ccc(CN2CCC(N(Cc3cccc(Oc4ccccc4)c3)S(=O)(=O)c3ccc(NC(C)=O)cc3)CC2)cc1 | 1050 nM
6 | COc1cccc2[nH]c(NCCCNCc3cc(Br)cc(Br)c3)nc12 | 950 nM
7 | CC(C)(C)OC(=O)n1cc(C2CCN(CCCC34CCCc5cccc(c53)NC4=O)CC2)c2ccncc21 (centres undefined) | 876 nM
8 | CN(Cc1cc(C(F)(F)F)cc(C(F)(F)F)c1)C(=O)C(Cc1ccc(F)cc1)C1CCCNC1 (centres undefined) | 1540 nM
9 | COc1cc(OCCCN(C)Cc2ccc(OC)c(OC)c2)ccc1NC(=O)c1cccc2c(O)c3cccc(F)c3nc12 | 891 nM
10 | CCOC(=O)c1cnc2cc(N3CCCC3)c(Cl)cc2c1OCC | 108 nM
11 | O=C(NC1CCN(Cc2cccc(C(F)(F)F)c2)CC1)c1ccc(-c2cccc(Cl)c2)s1 | 1130 nM
12 | Cc1cc(=NN=Cc2ccccc2Cl)c2cccc(C)c2[nH]1 | 705 nM
13 | N#Cc1ccc2c(c1)CN(C1CCC(NC(=O)C3=Cc4cc(Cl)ccc4OC3)CC1)CCC2 (centres undefined) | 1330 nM
14 | Cc1ccc2nc(N(CCCn3ccnc3)C(=O)C=Cc3cccs3)sc2c1 | 1390 nM
15 | CC(=O)Nc1nc(C)c(-c2csc(Nc3ccc(Cl)cc3)n2)s1 | 258 nM
16 | FC(F)(F)c1ccc2[nH]c(-c3ccc(-c4cccc(CNCC5CCCO5)c4)cc3)nc2c1 (centres undefined) | 250 nM
17 | COc1cccc(-c2cccc(-c3ccc(NC(=O)c4ccc([N+](=O)[O-])o4)cc3)n2)c1 | 515 nM
18 | Cc1cc(N[C@@H](Cc2ccccc2)C(=O)NCCOc2ccccc2)nc(NCC2CCCCC2)n1 | 854 nM
19 | CNC(=O)Cc1ccc(C(=O)Nc2cccc(-c3ccc(-c4nc5cccc(C)c5[nH]4)s3)c2)cc1 | 632 nM
20 | CN1CCC(C(=O)Nc2ccc(-c3ccc(-c4nc5cc(C(F)(F)F)ccc5[nH]4)s3)cc2)CC1 | 987 nM
21 | COc1ccc2nccc(NC(=O)C3CCC(NCc4ccc5c(c4)NC(=O)CS5)CC3)c2c1 (centres undefined) | 586 nM
22 | O=C(Nc1ccccc1)N(Cc1cccc(-c2cccc(CNCc3ccc4c(c3)OCO4)c2)c1)C1CCN(Cc2ccccc2)CC1 | 281 nM
23 | CSc1nccc(-c2ccc3ccnc(N)c3c2)n1 | 925 nM

Row | SMILES | XC50
24 | CCCCc1ccc2ncc(C(=O)OCC)c(O)c2c1 | 632 nM
25 | COc1ccc(-c2cc(Nc3nc(-c4cccc(Cl)c4)nc4ccccc34)ccn2)cc1 | 727 nM
26 | CN1CCc2cc(NC(=O)c3cc4ccccc4s3)cc(-c3ccccc3)c2CC1 | 885 nM
27 | COc1cc2nc(N3CCN(C(=O)c4ccco4)CC3)nc(NCc3ccccc3)c2cc1OC | 167 nM
28 | O=C(Nc1cccc(C(F)(F)F)c1)c1cccc(S(=O)(=O)NC2CCN(CC3CCCCC3)C2)c1 (centres undefined) | 588 nM
29 | CCOC(=O)C1=C(C)NC2=C(C(=O)C(C(=O)OC)C(C)C2)C1c1cc(Br)c(OCC)c(OC)c1 (centres undefined) | 701 nM
30 | CN(C)CCOc1cccc(-c2cnc(N)c(-c3nc4cc(S(C)(=O)=O)ccc4[nH]3)c2)c1 | 950 nM
31 | CCNc1nc(OCC(F)(F)F)nc(N(c2ccccc2)c2ccccc2)n1 | 472 nM
32 | CCOC(=O)c1ccc(NC(=O)N(Cc2ccc(-c3ccc(CN4CCNCC4)cc3)cc2)C2CCN(Cc3ccccc3)CC2)cc1 | 797 nM
33 | CN1CCC(C(=O)Nc2cccc(-c3ccc(-c4nc5cc(C(F)(F)F)ccc5[nH]4)s3)c2)CC1 | 724 nM
34 | Cc1[nH]c(C)c(-c2ccc(-c3ccc(OC(F)(F)F)cc3)cc2)c(=O)c1Cl | 35.4 nM
35 | CC[C@H]1CN2CCc3cc(OC)c(OC)cc3[C@@H]2C[C@@H]1C[C@H]1NCCc2c1cc(OC)c(O)c2Cl | 144 nM
36 | CC(Cc1ccc(SC(C)(C)C)cc1)NCC(O)c1cccc(Cl)c1 (centres undefined) | 317 nM
37 | O=C(OCc1ccccc1)N1CCc2c([nH]c3ccccc23)C1CCC(F)(F)F (centres undefined) | 425 nM
38 | Cc1ccc(CNC(=O)[C@H](CCCN)Nc2cc(C)nc(Nc3ccccc3)n2)cc1 | 1290 nM
39 | Cc1cc(OCCCN2CCC(NS(=O)(=O)c3ccc(C(F)(F)F)cc3)CC2)c2ccccc2n1 | 1220 nM
40 | CCCCCCCC1=NN2C(=N)C(=Cc3cc(Br)c(OCc4ccc(F)cc4)c(OCC)c3)C(=O)N=C2S1 | 1050 nM
41 | CN(C)Cc1ccc(CN2CCN(CCOc3ccc(-c4ccc(Cl)cc4)cc3)CC2)o1 | 1020 nM
42 | COc1cc2nc(-c3ccc(Br)cc3)cc(N)c2cc1OC | 173 nM
43 | Cc1cccc2nc(-c3cccc(-c4cccc(CNCc5cccc(N)c5)c4)c3)[nH]c12 | 543 nM
44 | C=CCOc1ccc(CNC2CCN(Cc3ccccc3)CC2)cc1Br | 1420 nM
45 | Cc1csc(-c2ncc(OC[C@@H](N)Cc3ccccc3)cc2-c2ccc3[nH]nc(C)c3c2)c1 | 836 nM
46 | Cc1cccc2nc(-c3ccc(-c4ccc(NC(=O)C(C)CN(C)C)cc4)s3)[nH]c12 (centres undefined) | 409 nM

Row | SMILES | XC50
47 | Cc1[nH]c(C)c(-c2ccc(-c3ccc4c(c3)OCO4)nc2)c(=O)c1Br | 187 nM
48 | O=c1cc(NCCCNCc2cc(Cl)cc(Cl)c2OCc2ccc(Cl)cc2)[nH]c2ccccc12 | 693 nM
49 | CCCc1ccc(NC(=O)c2ccc(CN3CCCN(CC4CCCCC4)CC3)cc2)cc1 | 524 nM
50 | O=C(Nc1ccc(C(=O)N(Cc2ccc3c(c2)OCO3)C2CCCC2)cc1)c1cccs1 | 650 nM
51 | CC(Cc1ccc(OCCCCOc2ccccc2)cc1)NCCc1ccccc1Cl (centres undefined) | 175 nM
52 | Oc1ccc2[nH]cc(C3=CCN(CCc4ccccc4)CC3)c2c1 | 313 nM
53 | O=C(/C=C/c1ccc(Cl)cc1)NCCCCCN1CCCC(C(=O)Nc2ccc(Cl)cc2)C1 (centres undefined) | 1050 nM
54 | O=C(NCCCCN1CCN(c2nsc3ccccc23)CC1)c1ccccc1C(=O)NCCCCN1CCN(c2nsc3ccccc23)CC1 | 887 nM
55 | CN1C(C)(C)CC(NC(=O)c2ccc(-c3nc4cc(Cl)ccc4[nH]3)cc2)CC1(C)C | 991 nM
56 | O=C(/C=C/c1ccsc1)NC1CCC(CN2CCC(c3c[nH]c4ccccc34)CC2)CC1 (centres undefined) | 1120 nM
57 | COc1cc(C)nc2ccc(NC(=O)Nc3ccccc3[N+](=O)[O-])cc12 | 837 nM
58 | CCCC(CNCc1ccc(Cl)c(C(F)(F)F)c1)CNc1nc2cnccc2[nH]1 (centres undefined) | 291 nM
59 | CN1CCCc2ccc(NC(=O)Nc3ccc(-c4ccccc4)cc3)cc2C1 | 380 nM
60 | COc1ccc(NC(=O)Nc2ccc(C)c(-c3ccc(C(=O)NCCN4CCCC4)cc3)c2)cc1 | 902 nM
61 | COc1c(C2CCN(CCCCNC(=O)c3ccc(-c4ccc(Cl)cc4)c(OCC(N)=O)c3)CC2)ccc2c1CCCC2 | 1010 nM
62 | CO/C(=C\C=C\c1cc2cc(Cl)c(Cl)cc2[nH]1)C(=O)NCCCN1CCN(c2ccncc2)CC1 | 733 nM
63 | Oc1ccc(-c2nc3c4cc(I)ccc4c4ccc(I)cc4c3[nH]2)cc1 | 972 nM
64 | COc1cc(Br)c(S(=O)(=O)n2cc(CN3CCC(N)CC3)c3cc(Cl)ccc32)cc1OC | 985 nM
65 | N=C(Nc1nc(-c2ccccn2)cc2ccccc12)c1cccc(Cl)c1 | 309 nM
66 | O=C(c1ccco1)N1CCN(c2nc(-c3ccc(Cl)cc3)nc3ccccc23)CC1 | 934 nM
67 | CC(=O)Nc1ccc2[nH]cc(C3CCN(CC4CCC(NC(=O)/C=C/c5ccccc5Cl)CC4)CC3)c2n1 (centres undefined) | 364 nM
68 | COCCNCc1cccc(-c2ccc3c(Nc4ccc(F)cc4Cl)ccnc3c2)c1 | 680 nM
69 | Cc1cccc(-c2ccc(NC(=O)Nc3ccc4nccc(N5CCN(C)CC5)c4c3)cc2C)n1 | 212 nM
